Where “and” joins values, the source holds several entries; their conditions need not be identical. Equal entries are not always repeated.
Experiments:
[1] = tested on: Lactobacillus acidophilus; test: Recovery from Acidophilus milk fortified with MSM into broth without MSM; assay type: cell-based; details: for Lag Recovery of Lactobacillus acidophilus in Milk fortified with MSM Day 28: duplicates
Description: The Acidophilus milk was low fat (Darigold). […] All preparations and plating was conducted at room temperature.
The recovery study was run parallel to the study done on the affects of MSM on growth of Lactobacillus acidophilus in Acidophilus milk fortified with MSM. The recovery growth rate was analyzed on Day 7, Day 14, Day 21 and Day 28. For Table 27, the growth for Day x with no time is calculated from the initial growth study with the dilution factor into the log growth. […] Table 28 takes the value of 2.00 as the starting value.

[2] = tested on: Acidophilus plus Bifidus milk microorganisms; test: Growth in Acidophilus plus Bifidus milk fortified with MSM; details: A/B milk […] MSM
Description: Then samples were evaluated every 7 days for a total of 28 days. […] The milks were bought at a local store. The Acidophilus milk was low fat (Darigold). The Acidophilus plus Bifidus milk contained 2% milkfat (Lucerne). […] The working solutions were held at 4° C. during the study.

Staphylococcus aureus = test: USP <51> AET in cosmetic cream/composition; assay type: cell-based; details: for Log Reduction from Initial Microorganism Inoculum: 14, 28 Days

Methylsulfonylmethane [MSM]
Lag Recovery of Lactobacillus acidophilus in Milk fortified with MSM Day 28 ([1]; 5.0% MSM, Day 28-72): 12.49 logs and 12.47 logs
Day 7 log recovery growth rate increase from start time of zero ([1]; 5.0% MSM, Hour 0): 0.00 logs
Day 14 log recovery growth rate increase from start time of zero ([1]; 5.0% MSM, Hour 0): 0.00 logs
Day 21 log recovery growth rate increase from start time of zero ([1]; 5.0% MSM, Hour 0): 0.00 logs
Day 7 log recovery growth rate increase from start time of zero ([1]; 5.0% MSM, Hour 24): 4.00 logs
Day 14 log recovery growth rate increase from start time of zero ([1]; 5.0% MSM, Hour 24): 3.56 logs
Day 21 log recovery growth rate increase from start time of zero ([1]; 5.0% MSM, Hour 24): 6.13 logs
Day 7 log recovery growth rate increase from start time of zero ([1]; 5.0% MSM, Hour 48): 0.47 logs
Day 14 log recovery growth rate increase from start time of zero ([1]; 5.0% MSM, Hour 48): 3.42 logs
Day 21 log recovery growth rate increase from start time of zero ([1]; 5.0% MSM, Hour 48): 3.39 logs
Day 7 log recovery growth rate increase from start time of zero ([1]; 5.0% MSM, Hour 72): −0.19 logs
Day 14 log recovery growth rate increase from start time of zero ([1]; 5.0% MSM, Hour 72): −0.59 logs
Day 21 log recovery growth rate increase from start time of zero ([1]; 5.0% MSM, Hour 72): 0.08 logs
Day 28 log recovery growth rate increase from start time of zero ([1]; 5.0% MSM, Time 0): 0.00 logs
Day 28 log recovery growth rate increase from start time of zero ([1]; 5.0% MSM, Time 24): 5.04 logs
Day 28 log recovery growth rate increase from start time of zero ([1]; 5.0% MSM, Time 48): 7.31 logs
Day 28 log recovery growth rate increase from start time of zero ([1]; 5.0% MSM, Time 72): −0.39 logs
Recovery of Lactobacillus acidophilus in Milk fortified with MSM Day 7, initial start data ([1]; […] MSM, Day 7): 8.50 logs
Recovery of Lactobacillus acidophilus in Milk fortified with MSM Day 7, average recovery ([1]; […] MSM, Day 7-24): 13.16 logs
Recovery of Lactobacillus acidophilus in Milk fortified with MSM Day 7, average recovery ([1]; […] MSM, Day 7-48): 12.36 logs
Recovery of Lactobacillus acidophilus in Milk fortified with MSM Day 7, average recovery ([1]; […] MSM, Day 7-72): 12.60 logs
Recovery of Lactobacillus acidophilus in Milk fortified with MSM Day 14, initial start data ([1]; […] MSM, Day 14-0): 5.33 logs
Recovery of Lactobacillus acidophilus in Milk fortified with MSM Day 14, average recovery ([1]; […] MSM, Day 14-24): 9.87 logs
Recovery of Lactobacillus acidophilus in Milk fortified with MSM Day 14, average recovery ([1]; […] MSM, Day 14-48): 12.32 logs
Recovery of Lactobacillus acidophilus in Milk fortified with MSM Day 14, average recovery ([1]; […] MSM, Day 14-72): 12.57 logs
Recovery of Lactobacillus acidophilus in Milk fortified with MSM Day 21, initial start data ([1]; […] MSM, Day 21): 3.47 logs
Recovery of Lactobacillus acidophilus in Milk fortified with MSM Day 21, average recovery ([1]; […] MSM, Day 21-24): 10.79 logs
Recovery of Lactobacillus acidophilus in Milk fortified with MSM Day 21, average recovery ([1]; […] MSM, Day 21-48): 12.78 logs
Recovery of Lactobacillus acidophilus in Milk fortified with MSM Day 21, average recovery ([1]; […] MSM, Day 21-72): 13.10 logs
Recovery of Lactobacillus acidophilus in Milk fortified with MSM Day 28, initial start data ([1]; […] MSM, Day 28): 1.33 logs
Recovery of Lactobacillus acidophilus in Milk fortified with MSM Day 28, average recovery ([1]; […] MSM, Day 28-24): 6.37 logs
Lag Recovery of Lactobacillus acidophilus in Milk fortified with MSM Day 28 ([1]; […] MSM, Day 28-24): 6.37 logs
Recovery of Lactobacillus acidophilus in Milk fortified with MSM Day 28, average recovery ([1]; […] MSM, Day 28-48): 12.57 logs
Recovery of Lactobacillus acidophilus in Milk fortified with MSM Day 28, average recovery ([1]; […] MSM, Day 28-72): 12.66 logs
Day 7 log recovery growth rate increase from start time of zero ([1]; […] MSM, Hour 0): 0.00 logs
Day 14 log recovery growth rate increase from start time of zero ([1]; […] MSM, Hour 0): 0.00 logs
Day 21 log recovery growth rate increase from start time of zero ([1]; […] MSM, Hour 0): 0.00 logs
Day 7 log recovery growth rate increase from start time of zero ([1]; […] MSM, Hour 24): 4.66 logs
Day 14 log recovery growth rate increase from start time of zero ([1]; […] MSM, Hour 24): 4.54 logs
Day 21 log recovery growth rate increase from start time of zero ([1]; […] MSM, Hour 24): 7.32 logs
Day 7 log recovery growth rate increase from start time of zero ([1]; […] MSM, Hour 48): −0.8 logs
Day 14 log recovery growth rate increase from start time of zero ([1]; […] MSM, Hour 48): 2.45 logs
Day 21 log recovery growth rate increase from start time of zero ([1]; […] MSM, Hour 48): 2.00 logs
Day 7 log recovery growth rate increase from start time of zero ([1]; […] MSM, Hour 72): 0.25 logs
Day 14 log recovery growth rate increase from start time of zero ([1]; […] MSM, Hour 72): 0.26 logs
Day 21 log recovery growth rate increase from start time of zero ([1]; […] MSM, Hour 72): 0.32 logs
Day 28 log recovery growth rate increase from start time of zero ([1]; […] MSM, Time 0): 0.00 logs
Day 28 log recovery growth rate increase from start time of zero ([1]; […] MSM, Time 24): 5.04 logs
Day 28 log recovery growth rate increase from start time of zero ([1]; […] MSM, Time 48): 6.20 logs
Day 28 log recovery growth rate increase from start time of zero ([1]; […] MSM, Time 72): 0.09 logs
Log Growth of Lactobacillus acidophilus in Milk fortified with MSM ([2]; Day 7): 10.42 logs
Log Growth of Lactobacillus acidophilus in Milk fortified with MSM ([2]; Day 21): 5.37 logs
Log Growth of Lactobacillus acidophilus in Milk fortified with MSM ([2]; Day 28): 3.94 logs
Log Growth of Lactobacillus acidophilus in Milk fortified with MSM ([2]; hour 0): 6.41 logs
Log Growth of Lactobacillus acidophilus in Milk fortified with MSM ([2]; hour 8): 8.67 logs
Log Growth of Lactobacillus acidophilus in Milk fortified with MSM ([2]; hour 24): 9.16 logs
Log Growth of Lactobacillus acidophilus in Milk fortified with MSM ([2]; hour 32): 8.87 logs
Log Growth of Lactobacillus acidophilus in Milk fortified with MSM ([2]; hour 48): 8.3 logs
Log Growth of Lactobacillus acidophilus in Milk fortified with MSM ([2]; hour 56): 8.56 logs
Log Growth of Lactobacillus acidophilus in Milk fortified with MSM ([2]; hour 72): 8.45 logs
Log Growth of Lactobacillus acidophilus in Milk fortified with MSM ([2]; hour 80): 9.82 logs
Log Growth of Lactobacillus acidophilus in Milk fortified with MSM ([2]; hour 96): 8.61 logs
Log Growth of Lactobacillus acidophilus in Milk fortified with MSM ([2]; hour 104): 8.92 logs
AET microorganism count (Staphylococcus aureus; 10% MSM in cosmetic cream without preservative, 48 hrs-28 days): <10
Log Reduction from Initial Microorganism Inoculum (Staphylococcus aureus; 10% MSM in preservative-free jojoba cream): 5.6 log
Log Reduction from Initial Microorganism Inoculum (Staphylococcus aureus; 10% MSM, Composition #1): 5.7 log
Log Reduction from Initial Microorganism Inoculum (Staphylococcus aureus; 10% MSM, Composition #2): 5.7 log

— patent US20110105623A1 (Biogenic Innovations, LLC, priority 2009, published 2011)
